What was measured:
[1] = test system: para-influenza virus, sendai virus, influenza A virus, and/or rhinovirus; assay: In vitro or cell culture activity against viruses; type: cell-based
Excerpt: (§1) The following compounds numbered 1-13 in the table below have been synthesized and tested in vitro or in cell culture against Neospora caninum (a protozoan), para-influenza virus, sendai virus, influenza A virus, and/or rhinovirus. In addition, applicant notes that compounds 12 and 13 have shown good activity against viruses and Neospora caninum.

Neospora caninum [2] = assay: In vitro or cell culture activity against Neospora caninum (compounds 1-13); type: cell-based
Excerpt: as §1

[3] = Human subject with elevated liver enzymes due to autoimmune hepatitis; type: in vivo; conditions: 500 mg twice daily orally, 10-day course
Excerpt: (§2) Cell culture studies of the mechanism of action by which tizoxanide suppresses rotavirus infection have been carried out. […] Studies have shown that tizoxanide binds to PDI-4 of Giardia intestinalis (an extra-cellular protozoan) and that tizoxanide is effective in vitro against Giardia intestinalis. • b. Studies have shown that tizoxanide binds to PDI isolated from Neospora caninum (intracellular protozoan) and is effective in vitro against this organism. • c. […] Studies in humans have shown that adults with chronic hepatitis B or with chronic hepatitis C can be effectively treated by administering nitazoxanide 500 mg (in tablet form) twice daily for 24 weeks with the patients having undetectable virus DNA or RNA in their serum at the end of treatment.

[4] = test system: human colon cancer cell lines; assay: Replication of human colon cancer cell lines and other cell lines; type: cell-based; conditions: human colon cancer cell lines and a variety of other cell lines
Excerpt: as §2

rotavirus [5] = assay: Children with severe rotavirus disease, versus placebo; type: in vivo, human; conditions: 7.5 mg/kg twice daily oral, compared to placebo
chronic hepatitis B = assay: Adults with chronic hepatitis B, serum virus DNA; type: in vivo, human; conditions: 500 mg tablet twice daily for 24 weeks
Excerpt: as §2

chronic hepatitis C = assay: Adults with chronic hepatitis C, serum virus RNA; type: in vivo, human; conditions: 500 mg tablet twice daily for 24 weeks
Excerpt: as §2

rotavirus [6] = assay: Cell culture studies of the mechanism by which tizoxanide suppresses rotavirus infection; type: cell-based
Excerpt: as §2

[7] = test system: PDI-4 of Giardia intestinalis; assay: Binding to PDI-4 of Giardia intestinalis
Excerpt: as §2

Giardia intestinalis = assay: In vitro efficacy against Giardia intestinalis; type: cell-based; conditions: extra-cellular protozoan
Excerpt: as §2

[8] = target: T1, PDI isolated from Neospora caninum (Neospora caninum, UniProt F0VAI6); assay: Binding to PDI isolated from Neospora caninum
T1 construct: PDI isolated from Neospora caninum; from tissue; host or cells: Neospora caninum (parasite material)
Excerpt: as §2

Neospora caninum [9] = assay: In vitro efficacy against Neospora caninum (tizoxanide); type: cell-based; conditions: intracellular protozoan
Excerpt: as §2

[10] = test system: pro-inflammatory cytokines: IL-2, IL-4, IL-5, IL-6, IL-8, IL-10, IL-12 and TNF-alpha; assay: Secretion of pro-inflammatory cytokines; type: cell-based
Excerpt: as §2

[11] = test system: IL-1β, IL-6 and TNF-alpha; assay: Cytokine suppressing ability in cell culture; type: cell-based; conditions: in particular IL-1β

T1 sequence (F0VAI6 entry or part of it): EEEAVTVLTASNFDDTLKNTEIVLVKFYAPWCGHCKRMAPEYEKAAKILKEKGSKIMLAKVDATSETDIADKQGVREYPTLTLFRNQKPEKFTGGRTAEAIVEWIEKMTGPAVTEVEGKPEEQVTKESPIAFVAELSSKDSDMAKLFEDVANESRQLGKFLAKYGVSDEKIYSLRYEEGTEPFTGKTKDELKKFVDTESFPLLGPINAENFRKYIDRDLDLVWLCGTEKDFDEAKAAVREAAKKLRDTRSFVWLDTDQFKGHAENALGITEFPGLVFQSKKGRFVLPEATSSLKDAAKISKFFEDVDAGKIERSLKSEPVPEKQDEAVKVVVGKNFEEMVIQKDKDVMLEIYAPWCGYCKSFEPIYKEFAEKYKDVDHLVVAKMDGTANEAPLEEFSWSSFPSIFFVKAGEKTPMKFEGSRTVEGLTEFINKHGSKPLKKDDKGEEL

Structure (SMILES): O=C(Nc1cccc(Cl)c1)c1ccccc1O [Compound 13, N-(3-chlorophenyl)-2-hy-droxybenzamide]
- activity against viruses [1]: good activity
- activity against Neospora caninum (Neospora caninum [2]): good activity

Structure (SMILES): CC(=O)Oc1ccccc1C(=O)Nc1ncc([N+](=O)[O-])s1 [nitazoxanide]
- liver transaminases [3]: reduced liver transaminases to normal levels
- replication of cell lines [4]: inhibits the replication
- duration of illness (rotavirus [5]): significantly reduces the duration of illness
- virus DNA in serum at end of treatment (chronic hepatitis B): undetectable
- virus RNA in serum at end of treatment (chronic hepatitis C): undetectable

Structure (SMILES): O=C(Nc1ncc([N+](=O)[O-])s1)c1ccccc1O [tizoxanide]
- VP7 maturation to a stage allowing glycosylation (rotavirus [6]): prevented VP7 from reaching a stage of maturation that allowed it to be glycosylated
- effect on viral transcription (rotavirus [6]): did not affect
- maturation of virus protein (rotavirus [6]): prevent maturation of virus protein
- effect on synthesis and/or maturation of VP7 (rotavirus [6]; single protein identified as VP7): selectively affects
- binding to PDI-4 [7]: binds
- efficacy in vitro (Giardia intestinalis): effective
- binding to PDI [8]: binds
- efficacy in vitro (Neospora caninum [9]): effective
- secretion of pro-inflammatory cytokines [10]: inhibits secretion

Structure (SMILES): O=C(Nc1cccc(F)c1)c1ccccc1O [Compound 12, N-(3-fluorophenyl)-2-hy-droxybenzamide]
- activity against viruses [1]: good activity
- activity against Neospora caninum (Neospora caninum [2]): good activity

Structure (SMILES): CC(=O)Oc1c(C)cccc1C(=O)Nc1ncc(Br)s1 [Compound 3]
- suppression of cytokines [11]: showed activity in suppressing cytokines

— patent US20070015803A1, “Methods for treating diseases through interruption of protein maturation, compounds that inhibit the function of molecular chaperones such as protein disulfide isomerases or interfere with glycosylation, pharmaceutical compositions comprising them, and screening methods for identifying therapeutic …” (Romark Laboratories L.C., priority 2005, published 2007)
